Assay results: patent publication US7888355B2, “Compositions and methods for inhibiting growth and metastasis of melanoma” (Burnham Institute for Medical Research, priority 2007, dated 2011)

How the values were obtained:
caspase 8 = assay: Caspase 8 immunoblot in SW1 cells; assay type: cell-based, mouse; conditions: 0.5 μM AIGA, 0.5 or 1.0 μM CSL, 24 hours
Method: (§1) Mitochondrial activity and apoptosis. Cells were exposed to the chemicals for 12-48 hours as indicated in Results. To measure changes in mitochondrial activity reflective of general cell viability, the ATPLITE ATP detection assay was used according to the manufacturer's recommendations (Perkin Elmer). Apoptosis analysis was performed by flow cytometry of PI-stained cells. The percentage of cells to the left of the diploid G0/1 peak, characteristic of hypodiploid cells that have partially lost DNA, was calculated as percentage of apoptotic cells (Bhoumik et al., PNAS 101:4222-7, 2004). Analysis of changes in Caspase 8 expression pattern was performed using immunoblot analysis.
Immunoblot analysis. Proteins prepared from cells at the indicated time points using RIPA buffer and 75 μg were separated on SDS-PAGE followed by immunoblot analysis using the antibodies indicated. […]
The finding that CSL and AIGA reduced cell viability in melanoma was made using the ATPLITE assay, which monitors the degree of mitochondrial ATP release, a marker for mitochondrial activity. […] Immunoblot analysis using caspase 8 antibody monitored full length and cleaved forms (active) of caspase 8. β-actin was used as a loading control.

SW1 melanoma cells = assay: Apoptosis by FACS of PI-stained SW1 cells; assay type: cell-based, mouse; conditions: 48 h
Method: as §1
The finding that CSL and AIGA reduced cell viability in melanoma was made using the ATPLITE assay, which monitors the degree of mitochondrial ATP release, a marker for mitochondrial activity. To directly assess possible changes in the apoptosis of melanoma cells following their exposure to CSL or AIGA, FACS analysis of the melanoma cells was performed 48 h after treatment. […] Treatment with 1 μM AIGA caused 15% apoptosis in these melanoma cultures (FIG. 4a). Treatment with CSL caused 13% apoptosis at a dose of 0.5 μM and 35% apoptosis at a dose of 1 μM (FIG. 4b). Consistent with these finding is the activation of caspases 8, a classic marker for apoptosis, which was observed upon addition of these compounds, by Western blot analysis. SW1 cells were treated with 0.5 μM AIGA, 0.5 μM CSL, 1.0 μM CSL for 24 hours. Staurosporin was used as a positive control. Immunoblot analysis using caspase 8 antibody monitored full length and cleaved forms (active) of caspase 8. β-actin was used as a loading control.

[1] = test system: ATF2 transcriptional activity; assay: Jun2-luciferase reporter assay in SW1 cells; assay type: cell-based; conditions: Mus musculus, Jun2-Luc, 8 h, read-out: concentration required to cause about 50% inhibition of ATF2 transcriptional activity
Method: Constructs and inhibitors. An ATF2 peptide (aa 51-100) was cloned into HA-tagged pcDNA3 vector as previously described (Bhoumik et al., Cancer Res 64:8222-30, 2004). 5×Jun2tk-Luc (marker for ATF2 transcriptional activities), 5×TRE-tk-Luc (marker for AP1/c-Jun transcriptional activities) and 2×NF-B-Luc were previously described (Bhoumik et al., J Clin Invest 110:643-50, 2002). Pharmacological inhibitor of JNK (SP600125) was purchased (EMD biosciences) and added (5 μM) to cultured cells as indicated in Results.
Transcriptional analysis. Transient transfection of different reporter constructs into melanoma cells was performed using LIPOFECTAMINE PLUS transfection reagent (Invitrogen). Luciferase activity was determined as previously described (Bhoumik et al., PNAS 101:4222-7, 2004).
These compounds were next assessed for their impact on ATF2 transcriptional activity. The effect of AIGA on ATF2 transcriptional activities was measured by the Jun2-luciferase assay. SW1 cells were transfected with the Jun2-luciferase plasmid and 24 h later cells were treated with the indicated concentrations of AIGA or CSL for 8 h before proteins were prepared and level of luciferase activity was measured. ATF2 51-100 peptide was used as a positive control. Data shown represent results from 3 experiments. […]

| SMILES | cleaved (active) forms of caspase 8 (caspase 8) | % apoptosis of SW1 melanoma cells (SW1 melanoma cells; 1 μM) [%] | IC50 [1] [nM] | % apoptosis of SW1 melanoma cells (SW1 melanoma cells; 0.5 μM) [%] |
| --- | --- | --- | --- | --- |
| CC(=O)Oc1c2c(c(CC=C(C)C)c3c1C(=O)C1=C[C@@H]4CC5C(C)(C)OC(C/C=C(\C)C(=O)O)(C4=O)[C@@]15O3)OC(C)(CCC=C(C)C)C=C2 (stereo partly shown) [AIGA, Acetyl isogambogic acid] | increase in intensity of the cleaved forms caspase 8 | 15 | ~500 |  |
| CC1=C(O)C(=O)C=C2C1=CC=C1[C@@]2(C)CC[C@@]2(C)[C@@H]3C[C@](C)(C(=O)O)CC[C@]3(C)CC[C@]12C [Celastrol] | increase in intensity of the cleaved forms caspase 8 | 35 | ~50 | 13 |
